Measurements taken from patent US12085564B2, “Assay to determine in vivo receptor occupancy” (BRISTOL-MYERS SQUIBB COMPANY, priority 2018, dated 2024).

Biological target: T1, Recombinant BTK (Homo sapiens, UniProt Q06187)
T1 construct: purchased Life Technologies (Carlsbad, CA) PV3587
Test: Preparation of DB-BTK / QB-BTK reference standards: covalent reaction of recombinant BTK with excess drug or quencher
Type: biochemical
Settings: recombinant BTK 5.9 μM, excess amount of drug, RT for 1 h
Procedure: Recombinant BTK (5.9 μM, 200 μL) was combined with 400 μL of PBS, and then spiked with 15 μL of 1.0 mg/mL drug solution (compound shown in FIG. 1A) in acetonitrile (2701 μM drug, 15 μL). The solution was then incubated at RT for 1 h, resulting in a DB-BTK concentration of 1919 nM.
Recombinant BTK (5.9 μM, 200 μL) was combined with 400 μL of PBS, and then spiked with 15 μL of 1.0 mg/mL quencher solution (compound shown in FIG. 1B) in acetonitrile (2806 μM quencher, 15 μL). The solution was incubated at RT for 1 h, resulting in a QB-BTK concentration of 1919 nM.

T1 sequence (Q06187 whole entry): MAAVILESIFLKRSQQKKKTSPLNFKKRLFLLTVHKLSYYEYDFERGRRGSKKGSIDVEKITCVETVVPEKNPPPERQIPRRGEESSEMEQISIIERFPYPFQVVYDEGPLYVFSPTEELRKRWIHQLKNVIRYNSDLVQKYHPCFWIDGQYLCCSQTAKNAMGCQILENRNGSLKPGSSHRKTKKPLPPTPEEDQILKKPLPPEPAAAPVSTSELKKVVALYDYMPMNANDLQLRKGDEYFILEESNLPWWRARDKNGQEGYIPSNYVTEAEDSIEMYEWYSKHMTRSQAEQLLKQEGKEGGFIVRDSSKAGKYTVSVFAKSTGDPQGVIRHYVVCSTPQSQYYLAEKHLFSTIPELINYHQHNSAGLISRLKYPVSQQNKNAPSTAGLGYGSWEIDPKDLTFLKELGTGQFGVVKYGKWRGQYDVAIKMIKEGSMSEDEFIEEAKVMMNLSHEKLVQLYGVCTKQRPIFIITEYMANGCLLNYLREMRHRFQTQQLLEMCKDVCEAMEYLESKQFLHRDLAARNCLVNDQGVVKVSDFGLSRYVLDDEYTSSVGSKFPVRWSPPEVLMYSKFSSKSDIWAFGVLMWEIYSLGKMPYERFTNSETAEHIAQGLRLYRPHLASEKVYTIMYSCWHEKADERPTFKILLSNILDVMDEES

CC#CC(=O)N[C@H]1CCCN(c2c(F)cc(C(N)=O)c3[nH]c(C)c(C)c23)C1 [compound shown in FIG. 1A]
conversion of free BTK to DB-BTK: ~100%
